Data from patent US20200085839A1, “COMBINATION OF IMMUNOTHERAPEUTICS AND BISFLUOROALKYL-1,4-BENZODIAZEPINONE COMPOUNDS FOR TREATING LYMPHOMAS” (Ayala Pharmaceuticals Inc., priority 2018, published 2020).
Entries after “also recorded” stand apart in the source; their conditions may differ.

Tests used:
GFP^+ LPL line = assay: Lysis of GFP expressing tumor cell lines by BCMA-CAR-T cells and/or Compound (1); format: cell-based, human; conditions: BCMA-CAR-T cells and Compound (1) combined; 36 h
From the text: Multiple unique fully human scFvs to BCMA are generated, and CARs based on these scFvs are generated. Multiple scFvs are identified by screening a fully human scFv phage library (>6×10^10 scFvs) with BCMA-Fc fusion protein and then 3T3 cells expressing human BCMA. FACS analysis of phage antibody clones against BCMA-3T3 and parental 3T3 cell lines is used to confirm unique positive clones.
The generated scFvs are used to generate BCMA-targeted CARs. These BCMA-targeted CARs have similar structure, e.g., each has a transmembrane domain comprising a CD28 polypeptide, and an intracellular domain comprising a […] and a co-stimulatory signaling region that comprises a CD28 polypeptide. Each of these BCMA-targeted CARs are cloned into a retroviral vector. These viral vectors are then transduced into HEK 293galv9 viral packaging cells in order to generate a stable packaging line for generation of CAR+ T cells. […] The cell surface expression of BCMA-targeted CARs on human T cells is determined via binding A647 conjugated BCMA-Fc fusion protein. The cell surface expression of BCMA-targeted 28z CAR24 is assessed, and cell surface detection is validated by flow cytometry.
The ability of BCMA-CAR-T cells and Compound (1) to specifically lyse human myeloma cell line (HMCL) is tested. […] At time 0, the percent of GFP tumor line is determined.

[1] = tested on: BCMA negative CD19 positive Raji Burkett lymphoma cell line; assay: Lysis of BCMA negative cells by BCMA-CAR-T cells and/or Compound (1); format: cell-based, human; conditions: combination with BCMA-CAR-T cells or each alone
[2] = tested on: RPMI-8226 human multiple myeloma cell line; assay: Combination index (Chou and Talalay) of Compound (1) with BCMA-CAR-T; format: cell-based; conditions: Compound (1) 10-80 nM with BCMA-CAR-T 10^9 cells
Protocol: (§1) Drug interaction analysis and the confirmation of synergism is determined by the method of Chou and Talalay. Linear regression analysis of dose-response data is performed using Calcusyn 1.2 software (Biosoft, Cambridge, United Kingdom) to calculate a combination index (CI) for each individual drug combination. To ensure valid statistical analysis, only experimental data for which the linear correlation coefficient of the median-effect plot was more than 0.9 are included. CI values are defined as: […]
(§2) The combination of Compound (1) with BCMA-CAR-T in models of human multiple myeloma in vitro lead to synergistic cell killing. Specifically, Compound (1) when used at concentrations between 10-80 nM (concentrations that are relevant in patients) in combination with BCMA-CAR-T at concentrations of 10^9 cells produce synergistic cell killing in the U266 and RPMI-8226 human multiple myeloma cell lines.

[3] = tested on: U266 human multiple myeloma cell line; assay: as above; format: cell-based; conditions: Compound (1) 10-80 nM with BCMA-CAR-T 10^9 cells
Protocol: as §1, §2

[4] = tested on: U266 human myeloma cell line cells in NSG mice; assay: Anti-tumor activity of BCMA-targeted CAR-T cells and Compound (1) in vivo; conditions: combination with 1×10^6 BCMA targeted CAR-T cells IV on day 4; imaging day 11
Protocol: BCMA targeted CAR-T cells mediate an anti-myeloma immune response. 1×10^7 U266 human myeloma cell line cells are injected IV into NSG mice on day 0. On day 4, a) 1×10^6 BCMA targeted second generation CAR-T cells, Compound (1) or both are injected IV.

018Z cells (B-ALL) = assay: Cell surface BCMA by FACS; format: cell-based, human
Protocol: (§3) Cells were seeded at 1×10^4 cells/well in a total volume of 250 μl into a 96-well plate. The cells were cultured in RPMI supplemented with 10% FCS.
(§4) The tested compounds (Compound 1 and Compound 22) were added to the cell cultures at concentrations of: 0, 10, 1, 0.5, 0.1, 0.01, 0.001 μM ([…], 10 nM, 100 nM, 500 nM, 1000 nM, and 10000 nM). Following 24 hours of incubation at 37° C., the cells were collected and stained with anti-BCMA antibody and immediately analyzed by FACS.
(§5) […] cell lines, comprising 9 subtypes of lymphomas (see Table 1), were seeded at 1×10^5 cells/well in a total volume of 250 μl into a 96-well plate. The cells were cultured in RPMI medium supplemented with 10% FCS. Compound (22) was added to the cell cultures at a concentration of 10 μM, 1 μM, 100 nM, 10 nM, 1 nM, 100 pM, 10 pM, 1 pM, and 100 fM, and cell lines (8 from Hadassah Medical Center, 31 from Eurofins) were incubated at 37° C. for 24 hours with Compound (22). Following incubation, the cells were collected and BCMA levels were evaluated on the cell surface for cell-bound BCMA. Cells were stained with an anti-BCMA antibody (PE anti-human 19F2 BCMA, Biolegend), and cell surface BCMA levels were determined by FACS analysis (Mean Fluorescence Intensity. Soluble BCMA levels were analyzed by ELISA (Human BCMA/TNFRSF17 DuoSet kit: R&D Systems).

REH cells (B-ALL) = assay: Cell surface BCMA by FACS; format: cell-based, human
Protocol: as §3, §4, §5

RS411 cells (B-ALL) = assay: Cell surface BCMA by FACS; format: cell-based, human
Protocol: as §3, §4, §5

Toledo cells (DLBCL) = assay: Cell surface BCMA by FACS; format: cell-based, human
Protocol: as §3, §4, §5

[5] = tested on: […] cell lines, comprising 9 subtypes of lymphomas; assay: Cell surface BCMA by FACS, lymphoma cell line panel; format: cell-based, human
Protocol: as §5

[6] = tested on: […] cell lines, comprising 9 subtypes of lymphomas; assay: Soluble BCMA by ELISA, lymphoma cell line panel; format: cell-based, human
Protocol: as §5

[7] = cell lines derived from Mantle Cell Lymphoma, DLBCL, Burkitt's Lymphoma, B-cell Lymphoma, 24 h

CN1C(=O)[C@@H](NC(=O)[C@H](CCC(F)(F)F)[C@H](CCC(F)(F)F)C(N)=O)N=C(c2ccccc2)c2ccccc21 [Compound 1, (2R,3S)—N-((3S)-1-methyl-2-oxo-5-phenyl-2,3-dihydro-1H-1,4-benzodiazepin-3-yl)-2,3-bis(3,3,3-trifluoropropyl)succinamide]
specific killing of GFP tumor cells (GFP^+ LPL line): specifically killed more cells of the GFP^+ LPL line than either treatment alone
lysis of BCMA negative cells [1]: neither the BCMA-CAR-T cells and Compound (1) combination nor each alone lyses
cell killing, combination index (CI) class [2]: synergistic (0.3 < CI ≤ 0.9)
cell killing, combination index (CI) class [3]: synergistic (0.3 < CI ≤ 0.9)
anti-tumor response, imaging of tumors [4]: improved anti-tumor response compared to either BCMA targeted CAR-T or Compound (1) treatment alone

Cc1cccc2c1NC(=O)[C@@H](NC(=O)[C@H](CCC(F)(F)F)[C@H](CCC(F)(F)F)C(N)=O)N=C2c1cccc(F)c1 [Compound (22), (2R,3S)—N-((3S)-5-(3-fluorophenyl)-9-methyl-2-oxo-2,3-dihydro-1H-1,4-benzodiazepin-3-yl)-2,3-bis(3,3,3-trifluoropropyl)succinamide]
mBCMA (MFI) Fold Increase (018Z cells (B-ALL)): 0.9 fold
BCMA (Mean Fluorescence Intensity) 1 nM Compound (22) (018Z cells (B-ALL); 1 nM, 24 h): 4121
BCMA (Mean Fluorescence Intensity) 100 nM Compound (22) (018Z cells (B-ALL); 100 nM, 24 h): 4500
mBCMA (MFI) Fold Increase (REH cells (B-ALL)): 0.9 fold
BCMA (Mean Fluorescence Intensity) 1 nM Compound (22) (REH cells (B-ALL); 1 nM, 24 h): 5559
BCMA (Mean Fluorescence Intensity) 100 nM Compound (22) (REH cells (B-ALL); 100 nM, 24 h): 6463
mBCMA (MFI) Fold Increase (RS411 cells (B-ALL)): 0.9 fold
BCMA (Mean Fluorescence Intensity) 1 nM Compound (22) (RS411 cells (B-ALL); 1 nM, 24 h): 2273
BCMA (Mean Fluorescence Intensity) 100 nM Compound (22) (RS411 cells (B-ALL); 100 nM, 24 h): 2518
mBCMA (MFI) Fold Increase (Toledo cells (DLBCL)): 3.2 fold
BCMA (Mean Fluorescence Intensity) 1 nM Compound (22) (Toledo cells (DLBCL); 1 nM, 24 h): 7541
BCMA (Mean Fluorescence Intensity) 100 nM Compound (22) (Toledo cells (DLBCL); 100 nM, 24 h): 9580
cell-bound BCMA levels ([5]; B-ALL, histiocytic lymphoma, anaplastic large cell lymphoma, cutaneous T-cell lymphoma cell lines): did not increase cell-bound BCMA levels
cell-bound BCMA levels [5, 7]: increased cell-bound BCMA levels
cell-bound BCMA levels ([5]; cell lines from Hodgkin's Lymphoma patients): increased cell-bound BCMA levels
increase of BCMA expression ([5]; certain lymphomas): Compound (22) increases BCMA expression in certain lymphomas by 2-9 fold
mBCMA ([5]; certain lymphomas): increases mBCMA
soluble BCMA [6, 7]: reduced soluble BCMA
shedding ([6]; certain lymphomas): abrogates shedding
BCMA shedding ([6]; lymphoma cells): decreases BCMA shedding from some lymphomas; also recorded: inhibits BCMA shedding
soluble BCMA ([6]; some Lymphoma/Leukemia cell lines): Compound (22) decreases soluble BCMA in some Lymphoma/Leukemia cell lines
